This is an account of results in patent US20250241890A1, “1,4-DIUREAS AND 1,4-DITHIOUREAS AND USES THEREOF” (Purdue Research Foundation, priority 2024, published 2025).

One series addresses T1, α-synuclein (α-syn) (Homo sapiens, UniProt P37840).
T1 construct: purchased rPeptide (Watkinsville, GA)
The experiment in a line: Thioflavin T (ThT) fluorescence assay of α-syn fibril formation. It counts as biochemical. The following applies: for remaining activity at 100 µM: α-syn 2 μM final concentration, compounds at 100 μM, average of three replicates with SEM, read-out: % ThT intensity (100 μM), maximum ThT intensity in percentage.

The test system of series [1] is neuroblastoma cells (SH-SY5Y). The series is described as follows: Crystal violet staining cytotoxicity. The class given is cell-based, human. The following applies: four days. As for the experimental part:
The cytotoxicity of compounds 1 and 2 was assessed using human neuroblastoma cells (SH-SY5Y). Employing the crystal violet staining method, determination of the optical density was used to reflect on the percentage of cells attached to each well (6-well plate format) after treatment with control DMSO (0.14) and compound concentrations at 5 and 10 μM. Treated cells were incubated at 37° C. with 5% CO2 for four days. […] Compound 2 was also non cytotoxic at higher concentration, i.e., 10 μM. Differences were not statistically significant at […] via one-way analysis of variance ANOVA with post-test (Dunnett's multiple comparison test).

The subject of series [2] is neuroblastoma cells (SH-SY5Y). The experiment in a line: MTT cytotoxicity. The following applies: for cell survival, MTT, difference to DMSO control: 20 μM, 48 hours; for cytotoxicity, MTT: 5 or 10 μM, 24 hours. It counts as cell-based, human. The procedure:
MTT (3-(4,5-Dimethylthiazol-2-yl)-2,5-diphenyltetrazolium bromide) is a tetrazolium salt that is commonly used to detect reductive metabolism in cells for viability, proliferation and cytotoxicity assays. MTT was utilized in order to evaluate metabolic cellular toxicity of compounds 1, 2, and DMSO (vehicle) using human neuroblastoma cells (SH-SY5Y). Cells were diluted in cellular media in order to obtain ˜500,000 cells per condition and grown for 8-12 hours prior treatment. Cellular media (see the material and method section below) was then removed. The cells were then treated with compounds 1 or 2 at 20 μM or DMSO control at 0.05% (FIG. 9) diluted in cellular media followed by an additional incubation of 48 hours. Cellular media was removed, and the cells were treated with 50% MTT in cellular media for 2 hours at 37° C. followed by detergent solution. Differences were considered non-significant (at p<0.05) (FIG. 9) based on the one-way analysis of variance (ANOVA) without post-test performed with GraphPad Prism (version 5).
MTT assay was performed once again with compounds 1 and 2 and DMSO control at 5 and 10 μM. Each well contained ˜500,000 cells (6-well plate) prepared 8-12 hours prior to treatment. The cells were treated for 24 hours, and then MTT method was applied to assess cell survival. […] No differences were detected at p<0.001 using the one-way analysis of variance (ANOVA) with Dunnett's multiple comparison test.

Molecules are shown by their SMILES.

On to `S=C(Nc1ccc(NC(=S)Nc2cccc3cc[nH]c23)cc1)Nc1cccc2cc[nH]c12` [Compound 8, 3-(1H-indol-7-yl)-1-(4-{[(1H-indol-7-yl)carbamothioyl]amino}phenyl)thiourea], for which the remaining activity at 100 µM at α-synuclein (α-syn) was determined as 41.6%.

`S=C(Nc1ccc(NC(=S)Nc2cccc3[nH]ccc23)cc1)Nc1cccc2[nH]ccc12` [Compound 2, 3-(1H-indol-4-yl)-1-(4-{[(1H-indol-4-yl)carbamothioyl]amino}phenyl)thiourea]: the “cytotoxicity, crystal violet staining” value in series [1] (5 μM) is “non cytotoxic”. Moreover, in series [1] (10 μM), the “cytotoxicity, crystal violet staining” value was “non cytotoxic”. Also, in series [2], the “cell survival, MTT, difference to DMSO control” value is reported as “non-significant” and the “cytotoxicity, MTT” value is “did not induce cytotoxicity”. In addition, on α-synuclein (α-syn), the remaining activity at 100 µM came out at 15.2%. Also, the “dose-dependent reduction of α-syn fibrillation (ThT)” value at α-synuclein (α-syn) (α-syn 6 μM, 47 hours, 12.5, 25, 50 and 100 μM) is recorded as “dose-dependent reduction”.

With `O=C(Nc1ccc(NC(=O)Nc2cccc3[nH]ccc23)cc1)Nc1cccc2[nH]ccc12` [Compound 1, 3-(1H-indol-4-yl)-1-(4-{[(1H-indol-4-yl)carbamoyl]amino}phenyl)urea], the “cytotoxicity, crystal violet staining” value in series [1] (5 μM) is listed as “non cytotoxic”. Also, in series [2], the “cell survival, MTT, difference to DMSO control” value is “non-significant” and the “cytotoxicity, MTT” value is recorded as “did not induce cytotoxicity”. Also, the EC50 on α-synuclein (α-syn) (Log (agonist) vs. normalized response (variable slope), Prism, α-syn 6 μM, 47 hours, 12.5, 25, 50 and 100 μM, read-out: Log EC50 (dose response curve of α-syn fibrillation, ThT) (converted)) was 15.9 ± 2.8 µM. Also, at α-synuclein (α-syn), the remaining activity at 100 µM worked out at 5.3%.
